Test results: patent US7919104B2, “Functional epitopes of Streptococcus pneumoniae PsaA antigen and uses thereof” (priority 2005, dated 2011)

Tests used:
Detroit 562 cells [1] = assay: Adherence of rPsaA- or peptide-coated fluospheres (beads) to Detroit 562 cells; type: cell-based, human; settings: 3,100±500 fluospheres per well; 2 hour incubation
Procedure: (§1) Carboxylate-modified fluorospheres (Molecular Probes™, […]) coated with either recombinant PsaA (rPsaA) or PsaA synthetic peptide (P4) were evaluated for their adherence to Detroit 562 NP cells. Four different batches of PsaA beads were generated by varying the concentration of the protein solution used to coat the beads (0.9 mg/ml, 0.53 mg/ml, 5.3 μg/ml and 0.53 μg/ml). P4 and Glycine control beads were generated by using a peptide solution (0.9 mg/ml). Protein concentrations were confirmed by the Bradford test (Sigma). PsaA and peptide beads were compared at similar inocula (1640±210 beads per well) in adherence and adherence competition assays (measured as mean fluorescent units (FU±SE)).
Recombinant PsaA protein or synthetic peptides were covalently bound to carboxylate-modified FluoSpheres (Molecular Probes, Eugene, Oreg.) (505/515 nm range, yellow, 1 μm in diameter). […] The 2% fluosphere stock was vortexed for 2 minutes at full speed. A 250-μl aliquot was sonicated for 5 minutes to break clumps. The sonicated fluospheres were washed 3 times by centrifugation at 10,000 rpm for 10 minutes in 250 μl MES buffer, pH 6.0 (Molecular Probes). The negative charge in the carboxylate-modified fluospheres was activated by adding 50 μl of EDAC solution (100 mg/ml, Molecular Probes) to the washed fluospheres resuspended in 200 μl MES. The fluospheres were incubated for 30 minutes RT with gentle rotation. A 250-μl volume of rPsaA (1 mg/ml) or peptide (2 mg/ml) resuspended in MES buffer was added to each fluosphere pellet. Suboptimal concentrations of rPsaA (900, 530, 5.3 and 0.53 μg/ml) were also used to generate partially coated fluospheres. Peptides were dissolved as 1 mg in 50 μl of 10% acetic acid followed by addition of 450 μl of MES buffer, pH 6.0. The 500-μl fluosphere suspension was incubated in the dark over night at room temperature with horizontal rotation (150 rpm). The remaining reactive sites were blocked by addition of a 50-μl volume of 1 M solution of glycine, followed by a-30-minute incubation at room temperature with horizontal rotation. The fluosphere suspension was then washed with 500 μl PBS, 50 mM, pH 7.2-7.4 three times by centrifugation at 10,000 rpm for 10 minutes. The first supernatant of the first wash was saved for protein determinations using the microtiter microdilution method of Bradford (Bio-Rad Laboratories, Calif.). The labeled fluosphere pellet was resuspended in 500 μl of PBS, 50 mM, pH 7.2-7.4. Labeled fluospheres were stored in the dark in 100-μl aliquots at 4° C. for up to 4 months. The peptides were stored in powder form at 4° C. under Dryerite desiccant. The resuspended peptides were stored at 4° C. for 6 weeks and for long term storage at −70° C. Fluospheres were counted by limiting dilution using a fluorometer (FLX-600, BioTek) with 485/520 nm excitation/emission wavelength and comparison to a calibration curve previously generated against hemacytometer counts.
Confluent monolayers of Detroit 562 cells grown in 96-well tissue culture plates for 6 days were washed once with 130 μl/well of PBS buffer+0.5% BSA (Sigma cat #A2153, Fraction V purified by alcohol precipitation). The entire outer perimeter of the microtiter plate was not used for adherence assays due to edge effect and lack of confluent growth in these wells. An 80-μl volume per well of PBS buffer+1% BSA and 20 μl per well of diluted fluosphere suspension (to yield ˜3100±500 fluospheres in a 20-μl volume) were added to the washed monolayers. The diluted fluosphere suspension was sonicated for 3 minutes prior to addition to the center of the wells. […] The sides of the plates were then tapped gently to mix. […] Following incubation, plates were washed 5 times with 130 μL/well of PBS+0.5% BSA. The liquid was removed after each wash with a multi-channel aspirator (Costar) and moderate vacuum. The plate was allowed to dry before reading in the fluorometer (485/520 nm). […]

Detroit 562 cells [2] = assay: Competitive inhibition of adherence of rPsaA-coated fluospheres to Detroit 562 cells; type: cell-based, human; settings: for inhibition of rPsaA-fluosphere adherence, heterologous competition: peptide 10 μg/well
Procedure: as §1
(§2) Homologous competitive inhibitions with 0.5 to 10 μg per well of rPsaA protein or 5 to 20 μg per well of each peptide were performed to determine the specificity of the adherence for rPsaA-coated fluospheres or for each of the three peptide-coated fluospheres. Heterologous competitive inhibitions with each peptide (10 μg per well) were performed to determine which peptide blocked the adherence of whole PsaA-coated fluospheres to the Detroit 562 cells. Absorption of PsaA-specific antibodies was performed by incubation (2 hours at ambient room temperature with rotation, 100 rpm) of 500 μl (1:8 dilution) of the serum 7051 with nitrocellulose strips (2.5×0.5 cm), previously impregnated with rPsaA protein (1.8 mg/ml) and allowed to dry at 37° C. for 1 hour. Strips were replaced every 2 hours for a total of 3 changes. All antibody absorptions were performed in PBS (10 mM, pH 7.2) supplemented with 1% (weight/volume) BSA as a non-specific blocker. Immunoglobulin G (IgG) concentrations (μg/ml) were measured as previously described (Tharpe, Romero-Steiner) after each absorption step to monitor the decline of anti-PsaA antibodies.

Detroit 562 cells [3] = assay: Homologous competitive inhibition of adherence of rPsaA- or peptide-coated fluospheres to Detroit 562 cells; type: cell-based, human
Procedure: as §1, §2

pneumococci = settings: antibodies to the peptides; cited from earlier work
[4] = homologous competitor 5.0 μg/well
[5] = homologous competitor 10 μg/well
[6] = homologous competitor 20 μg/well

Row | Substance | mean adherence of coated fluospheres (mean FU±SE) (Detroit 562 cells [1]) | inhibition of rPsaA-fluosphere adherence, heterologous competition (Detroit 562 cells [2]) [%] | percent reduction in adherence of homologous coated fluospheres (Detroit 562 cells [3]; [4]) [%] | percent reduction in adherence of homologous coated fluospheres (Detroit 562 cells [3]; [5]) [%] | percent reduction in adherence of homologous coated fluospheres (Detroit 562 cells [3]; [6]) [%] | colonization in mice immunized with the peptides (pneumococci) | enhancement of the binding of rPsaA fluospheres (Detroit 562 cells [2]; unsaturated fluospheres (530 μg/ml of rPsaA), data not shown) [fold]
1 | RSYQHDLRAYGFWRL [P2, synthetic peptide identified by phage display, reference compound] | 17,195±1,044 FU | 62.2 | 43.1 | 20.5 | 0.8 | reduce colonization | –
2 | LVRRFVHRRPHVE-SQ (LVRRFVHRRPHVESQ) [P3, synthetic peptide identified by phage display, reference compound] | 9,780±228 FU | 75.2 | −7.3 | 5.2 | 44.2 | reduce colonization | < 2.5
3 | TVSRVPWTAWAFHGY [P1, synthetic peptide identified by phage display, reference compound] | 52,684±4,354 FU | 88.1 | 50.2 | 60.9 | 34.1 | reduce colonization | –
